{"source": "paper PMC2997755", "about": "(Clinical cancer research : an official journal of the …, 2009)", "key": {"[1]": {"settings": "human, in vivo"}, "clinical": {"experiment": "clinical", "assay_type": "in vivo", "settings": "for AUC(0-inf) / AUC(0-t) / clearance / Cmax / half-life: human, plasma"}, "[2]": {"settings": "cited from earlier work"}, "[3]": {"experiment": "Phase I safety and tolerability: DLTs, MTD, adverse events", "settings": "sequential schedule dose level -1b; days 6-12, with decitabine 10 mg/m^2/day on days 1-5"}, "[4]": {"experiment": "Vorinostat serum pharmacokinetics, cycle 1", "assay_type": "in vivo", "settings": "for CL/F / AUC(0-inf) / AUC(0-t) / Cmax / half-life: mean (St dev); for AUC(0-inf) / AUC(0-t) / Cmax / half-life: human, serum, oral; for AUC(0-inf): AUCinf; for AUC(0-t): AUCt"}, "[5]": {"settings": "100 mg, Sequential schedule, 100 mg BID, day 9 of cycle 1"}, "[6]": {"settings": "200 mg, Concurrent schedule, 200 mg BID, day 4 of cycle 1"}, "[7]": {"settings": "200 mg, Sequential schedule, 200 mg BID, day 9 of cycle 1"}, "[8]": {"settings": "200 mg, Sequential schedule, 200 mg TID, day 9 of cycle 1"}, "[9]": {"settings": "200 mg, Concurrent schedule, 200 mg TID, day 4 of cycle 1"}}, "note": "Where two headings read alike, the source gives them in different places."}
{"smiles": "Nc1ncn([C@H]2C[C@H](O)[C@@H](CO)O2)c(=O)n1", "note": "[decitabine, 5-aza-2'-deoxycytidine]", "values": [{"measurement": "RP2D (recommended phase II dose)", "setting": "[1]", "value": 10, "unit": "mg/m^2/day"}, {"measurement": "Pharmacokinetic parameters on day 1 versus day 5 within the same dose level", "setting": "clinical; either schedule", "value": "No significant differences"}, {"measurement": "AUC(0-inf)", "setting": "clinical; intravenous, 10 mg/m2, AUCinf, Concurrent schedule, 10 mg/m^2, Day 1, mean (St dev)", "value": 77.6, "unit": "ng·h/mL"}, {"measurement": "AUC(0-inf)", "setting": "clinical; intravenous, 10 mg/m2, AUCinf, Concurrent schedule, 10 mg/m^2, Day 5, mean (St dev)", "value": 57.4, "unit": "ng·h/mL"}, {"measurement": "AUC(0-inf)", "setting": "clinical; intravenous, 10 mg/m2, AUCinf, Sequential schedule, 10 mg/m^2, Day 1, mean (St dev)", "value": 48.4, "unit": "ng·h/mL"}, {"measurement": "AUC(0-inf)", "setting": "clinical; intravenous, 10 mg/m2, AUCinf, Sequential schedule, 10 mg/m^2, Day 5, mean (St dev)", "value": 57.8, "unit": "ng·h/mL"}, {"measurement": "AUC(0-t)", "setting": "clinical; intravenous, 10 mg/m2, AUCt, Concurrent schedule, 10 mg/m^2, Day 1, mean (St dev)", "value": 75.8, "unit": "ng·h/mL"}, {"measurement": "AUC(0-t)", "setting": "clinical; intravenous, 10 mg/m2, AUCt, Concurrent schedule, 10 mg/m^2, Day 5, mean (St dev)", "value": 56.3, "unit": "ng·h/mL"}, {"measurement": "AUC(0-t)", "setting": "clinical; intravenous, 10 mg/m2, AUCt, Sequential schedule, 10 mg/m^2, Day 5, mean (St dev)", "value": 55.8, "unit": "ng·h/mL"}, {"measurement": "clearance", "setting": "clinical; intravenous, 10 mg/m2, CL, Concurrent schedule, 10 mg/m^2, Day 1, mean (St dev)", "value": 4670, "unit": "mL/min"}, {"measurement": "clearance", "setting": "clinical; intravenous, 10 mg/m2, CL, Concurrent schedule, 10 mg/m^2, Day 5, mean (St dev)", "value": 5570, "unit": "mL/min"}, {"measurement": "clearance", "setting": "clinical; intravenous, 10 mg/m2, CL, Sequential schedule, 10 mg/m^2, Day 1, mean (St dev)", "value": 7600, "unit": "mL/min"}, {"measurement": "clearance", "setting": "clinical; intravenous, 10 mg/m2, CL, Sequential schedule, 10 mg/m^2, Day 5, mean (St dev)", "value": 6130, "unit": "mL/min"}, {"measurement": "Cmax", "setting": "clinical; intravenous, 10 mg/m2, Cmax, Concurrent schedule, 10 mg/m^2, Day 1, mean (St dev)", "value": 88.6, "unit": "ng/mL"}, {"measurement": "Cmax", "setting": "clinical; intravenous, 10 mg/m2, Cmax, Concurrent schedule, 10 mg/m^2, Day 5, mean (St dev)", "value": 62.9, "unit": "ng/mL"}, {"measurement": "Cmax", "setting": "clinical; intravenous, 10 mg/m2, Cmax, Sequential schedule, 10 mg/m^2, Day 1, mean (St dev)", "value": 57.5, "unit": "ng/mL"}, {"measurement": "Cmax", "setting": "clinical; intravenous, 10 mg/m2, Cmax, Sequential schedule, 10 mg/m^2, Day 5, mean (St dev)", "value": 67.5, "unit": "ng/mL"}, {"measurement": "half-life", "setting": "clinical; intravenous, 10 mg/m2, t1/2, Concurrent schedule, 10 mg/m^2, Day 1, mean (St dev)", "value": 16.2, "unit": "min"}, {"measurement": "half-life", "setting": "clinical; intravenous, 10 mg/m2, t1/2, Concurrent schedule, 10 mg/m^2, Day 5, mean (St dev)", "value": 16.2, "unit": "min"}, {"measurement": "half-life", "setting": "clinical; intravenous, 10 mg/m2, t1/2, Sequential schedule, 10 mg/m^2, Day 1, mean (St dev)", "value": 20.4, "unit": "min"}, {"measurement": "half-life", "setting": "clinical; intravenous, 10 mg/m2, t1/2, Sequential schedule, 10 mg/m^2, Day 5, mean (St dev)", "value": 22.8, "unit": "min"}, {"measurement": "AUC(0-inf)", "setting": "clinical; intravenous, 15 mg/m2, AUCinf, Sequential schedule, 15 mg/m^2, Day 1, mean (St dev)", "value": 116, "unit": "ng·h/mL"}, {"measurement": "AUC(0-inf)", "setting": "clinical; intravenous, 15 mg/m2, AUCinf, Sequential schedule, 15 mg/m^2, Day 5, mean (St dev)", "value": 116, "unit": "ng·h/mL"}, {"measurement": "AUC(0-t)", "setting": "clinical; intravenous, 15 mg/m2, AUCt, Sequential schedule, 15 mg/m^2, Day 1, mean (St dev)", "value": 112, "unit": "ng·h/mL"}, {"measurement": "AUC(0-t)", "setting": "clinical; intravenous, 15 mg/m2, AUCt, Sequential schedule, 15 mg/m^2, Day 5, mean (St dev)", "value": 114, "unit": "ng·h/mL"}, {"measurement": "clearance", "setting": "clinical; intravenous, 15 mg/m2, CL, Sequential schedule, 15 mg/m^2, Day 1, mean (St dev)", "value": 5670, "unit": "mL/min"}, {"measurement": "clearance", "setting": "clinical; intravenous, 15 mg/m2, CL, Sequential schedule, 15 mg/m^2, Day 5, mean (St dev)", "value": 3930, "unit": "mL/min"}, {"measurement": "Cmax", "setting": "clinical; intravenous, 15 mg/m2, Cmax, Sequential schedule, 15 mg/m^2, Day 1, mean (St dev)", "value": 129, "unit": "ng/mL"}, {"measurement": "Cmax", "setting": "clinical; intravenous, 15 mg/m2, Cmax, Sequential schedule, 15 mg/m^2, Day 5, mean (St dev)", "value": 142, "unit": "ng/mL"}, {"measurement": "half-life", "setting": "clinical; intravenous, 15 mg/m2, t1/2, Sequential schedule, 15 mg/m^2, Day 1, mean (St dev)", "value": 22.8, "unit": "min"}, {"measurement": "half-life", "setting": "clinical; intravenous, 15 mg/m2, t1/2, Sequential schedule, 15 mg/m^2, Day 5, mean (St dev)", "value": 19.8, "unit": "min"}, {"measurement": "AUC(0-inf)", "setting": "clinical; intravenous, 20 mg/m2, AUCinf, Sequential schedule, 20 mg/m^2, Day 1, mean (St dev)", "value": 119, "unit": "ng·h/mL"}, {"measurement": "AUC(0-inf)", "setting": "clinical; intravenous, 20 mg/m2, AUCinf, Sequential schedule, 20 mg/m^2, Day 5, mean (St dev)", "value": 165, "unit": "ng·h/mL"}, {"measurement": "AUC(0-t)", "setting": "clinical; intravenous, 20 mg/m2, AUCt, Sequential schedule, 20 mg/m^2, Day 1, mean (St dev)", "value": 115, "unit": "ng·h/mL"}, {"measurement": "AUC(0-t)", "setting": "clinical; intravenous, 20 mg/m2, AUCt, Sequential schedule, 20 mg/m^2, Day 5, mean (St dev)", "value": 161, "unit": "ng·h/mL"}, {"measurement": "clearance", "setting": "clinical; intravenous, 20 mg/m2, CL, Sequential schedule, 20 mg/m^2, Day 1, mean (St dev)", "value": 5280, "unit": "mL/min"}, {"measurement": "clearance", "setting": "clinical; intravenous, 20 mg/m2, CL, Sequential schedule, 20 mg/m^2, Day 5, mean (St dev)", "value": 3920, "unit": "mL/min"}, {"measurement": "Cmax", "setting": "clinical; intravenous, 20 mg/m2, Cmax, Sequential schedule, 20 mg/m^2, Day 1, mean (St dev)", "value": 135, "unit": "ng/mL"}, {"measurement": "Cmax", "setting": "clinical; intravenous, 20 mg/m2, Cmax, Sequential schedule, 20 mg/m^2, Day 5, mean (St dev)", "value": 198, "unit": "ng/mL"}, {"measurement": "half-life", "setting": "clinical; intravenous, 20 mg/m2, t1/2, Sequential schedule, 20 mg/m^2, Day 1, mean (St dev)", "value": 21.6, "unit": "min"}, {"measurement": "half-life", "setting": "clinical; intravenous, 20 mg/m2, t1/2, Sequential schedule, 20 mg/m^2, Day 5, mean (St dev)", "value": 25.2, "unit": "min"}, {"measurement": "half-life", "setting": "clinical; iv, half-life, patients, 1-hour intravenous infusion", "value": "~20", "unit": "min"}, {"measurement": "Dose proportionality of Cmax and AUC", "setting": "clinical; sequential schedule, increasing doses of decitabine", "value": "did not produce dose proportional increases"}]}
{"smiles": "O=C(CCCCCCC(=O)Nc1ccccc1)NO", "note": "[vorinostat, suberoylanilide hydroxamic acid]", "values": [{"measurement": "maximum tolerated dose, monotherapy", "setting": "[2]; patients with hematologic malignancies", "value": "250 mg orally thrice a day for 14 days every 21 days"}, {"measurement": "maximum tolerated dose, monotherapy", "setting": "[2]; patients with solid tumors", "value": "200 mg orally twice a day continuously"}, {"measurement": "RP2D (recommended phase II dose)", "setting": "[3]", "value": 200, "unit": "mg twice daily"}, {"measurement": "Cmax, AUCinf and AUCt, concurrent versus sequential schedule", "setting": "[4]; 200mg BID dose level, p 0.09, 0.004 and 0.0005", "value": "lower in the concurrent schedule"}, {"measurement": "CL/F", "setting": "[4]; Concurrent schedule, 200 mg BID, day 4 of cycle 1", "value": "5.3 (2.3) ml/min"}, {"measurement": "CL/F", "setting": "[4]; Sequential schedule, 100 mg BID, day 9 of cycle 1", "value": "4.3(2.3) ml/min"}, {"measurement": "CL/F", "setting": "[4]; Sequential schedule, 200 mg BID, day 9 of cycle 1", "value": "3(0.7) ml/min"}, {"measurement": "CL/F", "setting": "[4]; Sequential schedule, 200 mg TID, day 9 of cycle 1", "value": "4(3.7) ml/min"}, {"measurement": "AUC(0-inf)", "setting": "[4]; [5]", "value": 446, "unit": "ng·h/mL"}, {"measurement": "AUC(0-t)", "setting": "[4]; [5]", "value": 424, "unit": "ng·h/mL"}, {"measurement": "Cmax", "setting": "[4]; [5]", "value": 165, "unit": "ng/mL"}, {"measurement": "half-life", "setting": "[4]; 100 mg, t1/2, Sequential schedule, 100 mg BID, day 9 of cycle 1", "value": 83.4, "unit": "min"}, {"measurement": "AUC(0-inf)", "setting": "[4]; [6]", "value": 708, "unit": "ng·h/mL"}, {"measurement": "AUC(0-inf)", "setting": "[4]; [7]", "value": 1180, "unit": "ng·h/mL"}, {"measurement": "AUC(0-inf)", "setting": "[4]; [8]", "value": 1350, "unit": "ng·h/mL"}, {"measurement": "AUC(0-t)", "setting": "[4]; [6]", "value": 573, "unit": "ng·h/mL"}, {"measurement": "AUC(0-t)", "setting": "[4]; [9]", "value": 883, "unit": "ng·h/mL"}, {"measurement": "AUC(0-t)", "setting": "[4]; [7]", "value": 1020, "unit": "ng·h/mL"}, {"measurement": "AUC(0-t)", "setting": "[4]; [8]", "value": 1090, "unit": "ng·h/mL"}, {"measurement": "Cmax", "setting": "[4]; [6]", "value": 214, "unit": "ng/mL"}, {"measurement": "Cmax", "setting": "[4]; [9]", "value": 227, "unit": "ng/mL"}, {"measurement": "Cmax", "setting": "[4]; [7]", "value": 313, "unit": "ng/mL"}, {"measurement": "half-life", "setting": "[4]; 200 mg, t1/2, Concurrent schedule, 200 mg BID, day 4 of cycle 1", "value": 143, "unit": "min"}, {"measurement": "half-life", "setting": "[4]; 200 mg, t1/2, Sequential schedule, 200 mg BID, day 9 of cycle 1", "value": 153, "unit": "min"}, {"measurement": "half-life", "setting": "[4]; 200 mg, t1/2, Sequential schedule, 200 mg TID, day 9 of cycle 1", "value": 103, "unit": "min"}, {"measurement": "Dose proportionality of AUC and Cmax after a single administration", "setting": "[4]; sequential schedule, dose increased from 100 mg to 200 mg", "value": "increased proportionaly"}]}
